# Test results taken from BindingDB's records for patent US10221174 (University of Michigan, 2019).
# Biological target: Isoform Bcl-X(L) of Bcl-2-like protein 1 (Bcl-xL) (Homo sapiens, UniProt Q07817)
# Sequence (Q07817 whole entry G70A, canonical isoform): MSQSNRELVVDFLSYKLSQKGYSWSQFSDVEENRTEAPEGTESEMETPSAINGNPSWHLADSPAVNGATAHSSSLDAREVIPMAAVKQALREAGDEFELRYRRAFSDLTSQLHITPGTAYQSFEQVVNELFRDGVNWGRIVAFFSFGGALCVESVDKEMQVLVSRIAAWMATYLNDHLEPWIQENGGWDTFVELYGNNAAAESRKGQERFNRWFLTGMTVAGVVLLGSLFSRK
compound,measurement,value
"O=C(NS(=O)(=O)c1cc([N+](=O)[O-])c2cnn(CC3CCOCC3)c2c1)c1ccc(N2CCN(CC3=C(c4ccc(Cl)cc4)CC4(CCC4)CC3)CC2)cc1Oc1cnc2[nH]ccc2c1 [US10221174, Compound 62]",IC50,4 nM
"O=C(NS(=O)(=O)c1cc([N+](=O)[O-])c2cnn(C3CCOCC3)c2c1)c1ccc(N2CCN(CC3=C(c4ccc(Cl)cc4)CC4(CCC4)CC3)CC2)cc1Oc1cnc2[nH]ccc2c1 [US10221174, Compound 64]",IC50,8.7 nM
